Data on four molecules can be found in ChEMBL document CHEMBL2346597, “Use of core modification in the discovery of CC214-2, an orally available, selective inhibitor of mTOR kinase” (Bioorg Med Chem Lett, 2013).

Structures are written as SMILES. pIC50: −log10 of the molar value. Calls of active or inactive are those of the source. The calls are words filed in the database; no cut-off is given here. A value given as a limit tells only on which side of the number the result lay.

For series [1], the system named is PC-3. The series can be described thus: cells. The following applies: Homo sapiens, PC-3, 72 h.
A short description of series [2]: Oral bioavailability in rat at 5 mg/kg. Format: ADME, organism-based. The conditions noted are these: in vivo.
In another series the target is mTORC1 (Homo sapiens, UniProt P42345). Put plainly: Inhibition of mTORC1 in human PC3 cells assessed as inhibition of S6 phosphorylation after 1 hr by sandwich immunoassay. In kind it is cell-based, PC-3.
Series [3] addresses Phosphatidylinositol 4,5-bisphosphate 3-kinase catalytic subunit alpha isoform (Homo sapiens, UniProt P42336). The series can be described thus: Inhibition of PI3Kalpha (unknown origin) by mobility shift assay.
Series [4] in a line: Inhibition of mTORC2 in human PC3 cells assessed as inhibition of AKTS473 phosphorylation after 1 hr by sandwich immunoassay. In kind it is cell-based. The following applies: PC-3, 1 h.
Series [5] deals with Insulin receptor (Homo sapiens) (UniProt P06213). The series can be described thus: Inhibition of IRK1 (unknown origin) assessed as remaining activity at 10 uM relative to control.
Sequence of Insulin receptor (Homo sapiens) (P06213 whole entry, looked up): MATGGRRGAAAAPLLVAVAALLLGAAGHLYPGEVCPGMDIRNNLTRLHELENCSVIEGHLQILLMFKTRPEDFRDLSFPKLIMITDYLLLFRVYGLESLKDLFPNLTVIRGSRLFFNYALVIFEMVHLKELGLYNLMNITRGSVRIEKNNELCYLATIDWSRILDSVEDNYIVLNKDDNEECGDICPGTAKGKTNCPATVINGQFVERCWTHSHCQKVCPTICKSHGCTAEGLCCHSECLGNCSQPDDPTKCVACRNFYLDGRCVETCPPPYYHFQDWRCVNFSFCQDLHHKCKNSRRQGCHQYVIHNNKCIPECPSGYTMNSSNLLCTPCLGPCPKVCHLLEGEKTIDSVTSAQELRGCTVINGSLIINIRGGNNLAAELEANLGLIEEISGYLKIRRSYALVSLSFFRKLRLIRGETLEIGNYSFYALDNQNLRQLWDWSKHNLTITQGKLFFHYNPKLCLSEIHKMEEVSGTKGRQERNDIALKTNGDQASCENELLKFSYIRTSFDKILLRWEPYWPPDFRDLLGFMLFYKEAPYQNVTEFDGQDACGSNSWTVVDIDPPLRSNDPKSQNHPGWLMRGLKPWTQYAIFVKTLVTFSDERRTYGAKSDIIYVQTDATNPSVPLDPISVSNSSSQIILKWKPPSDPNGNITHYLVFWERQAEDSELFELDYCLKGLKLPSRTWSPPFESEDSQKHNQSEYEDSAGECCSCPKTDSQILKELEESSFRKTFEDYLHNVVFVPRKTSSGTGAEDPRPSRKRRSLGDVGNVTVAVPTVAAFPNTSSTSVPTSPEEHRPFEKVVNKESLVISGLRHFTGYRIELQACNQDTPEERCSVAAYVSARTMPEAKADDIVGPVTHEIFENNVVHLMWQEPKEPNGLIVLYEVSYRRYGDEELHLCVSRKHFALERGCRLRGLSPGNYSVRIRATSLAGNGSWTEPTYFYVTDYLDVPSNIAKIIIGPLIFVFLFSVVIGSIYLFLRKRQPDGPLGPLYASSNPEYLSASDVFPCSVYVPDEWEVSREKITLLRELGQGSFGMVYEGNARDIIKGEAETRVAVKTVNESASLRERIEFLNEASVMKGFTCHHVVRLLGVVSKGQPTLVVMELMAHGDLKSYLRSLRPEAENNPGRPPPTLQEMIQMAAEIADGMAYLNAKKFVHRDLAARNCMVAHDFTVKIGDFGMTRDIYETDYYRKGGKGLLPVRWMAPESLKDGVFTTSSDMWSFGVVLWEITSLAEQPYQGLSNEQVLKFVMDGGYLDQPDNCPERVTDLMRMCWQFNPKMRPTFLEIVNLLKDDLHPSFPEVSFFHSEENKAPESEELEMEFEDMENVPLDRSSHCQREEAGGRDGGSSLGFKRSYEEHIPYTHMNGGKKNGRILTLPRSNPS
Series [6] is described as follows: Plasma concentration in CB17 SCID mouse xenografted with human PC3 cells at 30 mg/kg, po qd at 4 hrs. In kind it is ADME, organism-based, PC-3. More on the design: dose 30 mg/kg, route oral. (In general: Xenograft models place foreign cells or tissue in a host animal.)
The nature of series [7]: Tmax in rat at 5 mg/kg, po. Format: ADME, organism-based. More on the design: dose 5 mg/kg, route oral. The following applies: in vivo.
Series [8] in a line: Plasma concentration in CB17 SCID mouse xenografted with human PC3 cells at 30 mg/kg, po qd at 2 hrs. Format: ADME, organism-based, PC-3. More on the design: dose 30 mg/kg, route oral.
A short description of series [9]: Cmax in rat at 5 mg/kg, po. Format: ADME, organism-based. Also noted: dose 5 mg/kg, route oral. The conditions noted are these: in vivo.
Series [10] is described as follows: Mean residence time in rat at 2 mg/kg, iv. The following applies: in vivo. In kind it is ADME, organism-based. Also noted: dose 2 mg/kg, route intravenous.
Series [11] in a line: AUC (0 to infinity) in rat at 2 mg/kg, iv. Format: ADME, organism-based. The following applies: plasma. More on the design: time infinity, dose 2 mg/kg, route intravenous.
In series [12] the test system is Plasma. Put plainly: Free plasma concentration in CB17 SCID mouse xenografted with human PC3 cells at 30 mg/kg, po qd at 4 hrs. Also noted: dose 30 mg/kg, route oral. Format: ADME, organism-based, PC-3. The following applies: in vivo.
For series [13], the system named is PC-3. The conditions noted are these: Homo sapiens.
Series [14] has as its system Plasma. The series can be described thus: Free plasma concentration in CB17 SCID mouse xenografted with human PC3 cells at 30 mg/kg, po qd at 24 hrs. Format: ADME, organism-based, PC-3. Also noted: dose 30 mg/kg, route oral. The conditions noted are these: in vivo.
Series [15] is described as follows: Volume of distribution at steady state in rat at 2 mg/kg, iv. The following applies: in vivo, read-out: Vdss. In kind it is ADME, organism-based. Also noted: dose 2 mg/kg, route intravenous.
Series [16] deals with PC-3. The following applies: Homo sapiens. This is another data set of the same source.
A short description of series [17]: Drug uptake in tumor of CB17 SCID mouse xenografted with human PC3 cells at 30 mg/kg, po qd at 4 hrs. In kind it is ADME, organism-based, Neoplasm, PC-3. Also noted: dose 30 mg/kg, route oral. The conditions noted are these: read-out: Drug uptake.
Series [18] in a line: Plasma protein binding in CB17 SCID mouse xenografted with human PC3 cells at 30 mg/kg, po qd after 24 hrs. In kind it is ADME, organism-based, PC-3. Also noted: dose 30 mg/kg, route oral. The conditions noted are these: read-out: PPB (converted).
A short description of series [19]: Drug uptake in tumor of CB17 SCID mouse xenografted with human PC3 cells at 30 mg/kg, po qd at 2 hrs. The conditions noted are these: read-out: Drug uptake. In kind it is ADME, organism-based, Neoplasm, PC-3. More on the design: dose 30 mg/kg, route oral.
A short description of series [20]: Drug uptake in tumor of CB17 SCID mouse xenografted with human PC3 cells at 30 mg/kg, po qd at 8 hrs. Format: ADME, organism-based, Neoplasm, PC-3. More on the design: dose 30 mg/kg, route oral. The conditions noted are these: read-out: Drug uptake.
Series [21] concerns PC-3. Put plainly: Antitumor activity against human PC3 cells xenografted in CB17 SCID mouse assessed as tumor growth inhibition at 10 mg/kg, po qd administered on day 11 post tumor implantation measured after 32 days relative to vehicle-treated control. Format: functional. The conditions noted are these: read-out: TGI.
The test system of series [22] is Plasma. The series can be described thus: Free plasma concentration in CB17 SCID mouse xenografted with human PC3 cells at 30 mg/kg, po qd at 8 hrs. Format: ADME, organism-based, PC-3. Also noted: dose 30 mg/kg, route oral. The following applies: in vivo.
Series [23] is described as follows: Plasma concentration in CB17 SCID mouse xenografted with human PC3 cells at 30 mg/kg, po qd at 24 hrs. Format: ADME, organism-based, PC-3. More on the design: dose 30 mg/kg, route oral.
The nature of series [24]: Plasma concentration in CB17 SCID mouse xenografted with human PC3 cells at 30 mg/kg, po qd at 8 hrs. Format: ADME, organism-based, PC-3. More on the design: dose 30 mg/kg, route oral.
Series [25] concerns PC-3. The following applies: Homo sapiens. The source holds these as a separate data set.
Series [26] in a line: Drug uptake in tumor of CB17 SCID mouse xenografted with human PC3 cells at 30 mg/kg, po qd at 24 hrs. In kind it is ADME, organism-based, Neoplasm, PC-3. Also noted: dose 30 mg/kg, route oral. The following applies: read-out: Drug uptake.
For series [27], the system named is Plasma. Put plainly: Free plasma concentration in CB17 SCID mouse xenografted with human PC3 cells at 30 mg/kg, po qd at 2 hrs. Format: ADME, organism-based, PC-3. Also noted: dose 30 mg/kg, route oral. The following applies: in vivo.
Series [28] has as its system Mus musculus. The series can be described thus: In vivo inhibition of mTORC2 in human PC3 cells xenografted in CB17 SCID mouse assessed as inhibition of AKTS473 phosphorylation at 30 mg/kg, po qd after 2 to 8 hrs relative to vehicle-treated control. The following applies: CB17, PC-3, po.
The subject of series [29] is Mus musculus. The series can be described thus: In vivo inhibition of mTORC2 in human PC3 cells xenografted in CB17 SCID mouse assessed as inhibition of AKTS473 phosphorylation at 30 mg/kg, po qd measured at 24 hrs relative to vehicle-treated control. The following applies: CB17, PC-3, po.
Series [30] deals with PC-3. The series can be described thus: Antitumor activity against human PC3 cells xenografted in CB17 SCID mouse assessed as tumor growth inhibition at 50 mg/kg, po qd administered on day 11 post tumor implantation measured after 32 days relative to vehicle-treated control. Format: functional. The following applies: read-out: TGI.
Series [31] is described as follows: AUC (0 to infinity) in rat at 5 mg/kg, po. In kind it is ADME, organism-based. More on the design: time infinity, dose 5 mg/kg, route oral. The following applies: plasma.
Series [32] deals with Mus musculus. Put plainly: In vivo inhibition of mTORC1 in human PC3 cells xenografted in CB17 SCID mouse assessed as inhibition of S6 phosphorylation at 30 mg/kg, po qd measured at 24 hrs relative to vehicle-treated control. Format: functional. The following applies: CB17, PC-3, 24 h.
A short description of series [33]: Clearance in rat at 2 mg/kg, iv. Format: ADME, organism-based. The conditions noted are these: in vivo. More on the design: dose 2 mg/kg, route intravenous.
Series [34] concerns PC-3. The following applies: Homo sapiens. This is another data set of the same source.
Series [35] deals with Mus musculus. Put plainly: In vivo inhibition of mTORC1 in human PC3 cells xenografted in CB17 SCID mouse assessed as inhibition of S6 phosphorylation at 30 mg/kg, po qd after 2 to 8 hrs relative to vehicle-treated control. In kind it is functional. The conditions noted are these: CB17, PC-3.
The test system of series [36] is PC-3. The series can be described thus: Antitumor activity against human PC3 cells xenografted in CB17 SCID mouse assessed as tumor growth inhibition at 25 mg/kg, po qd administered on day 11 post tumor implantation measured after 32 days relative to vehicle-treated control. In kind it is functional. The conditions noted are these: read-out: TGI.
Series [37] deals with Mus musculus. Put plainly: Toxicity in CB17 SCID mouse xenografted with human PC3 cells at 10 to 50 mg/kg, po qd administered on day 11 post tumor implantation measured after 32 days. The following applies: in vivo. In kind it is organism-based, PC-3. Also noted: dose 10-50 mg/kg, route oral.

Sequence of Phosphatidylinositol 4,5-bisphosphate 3-kinase catalytic subunit alpha isoform (P42336 whole entry, canonical isoform): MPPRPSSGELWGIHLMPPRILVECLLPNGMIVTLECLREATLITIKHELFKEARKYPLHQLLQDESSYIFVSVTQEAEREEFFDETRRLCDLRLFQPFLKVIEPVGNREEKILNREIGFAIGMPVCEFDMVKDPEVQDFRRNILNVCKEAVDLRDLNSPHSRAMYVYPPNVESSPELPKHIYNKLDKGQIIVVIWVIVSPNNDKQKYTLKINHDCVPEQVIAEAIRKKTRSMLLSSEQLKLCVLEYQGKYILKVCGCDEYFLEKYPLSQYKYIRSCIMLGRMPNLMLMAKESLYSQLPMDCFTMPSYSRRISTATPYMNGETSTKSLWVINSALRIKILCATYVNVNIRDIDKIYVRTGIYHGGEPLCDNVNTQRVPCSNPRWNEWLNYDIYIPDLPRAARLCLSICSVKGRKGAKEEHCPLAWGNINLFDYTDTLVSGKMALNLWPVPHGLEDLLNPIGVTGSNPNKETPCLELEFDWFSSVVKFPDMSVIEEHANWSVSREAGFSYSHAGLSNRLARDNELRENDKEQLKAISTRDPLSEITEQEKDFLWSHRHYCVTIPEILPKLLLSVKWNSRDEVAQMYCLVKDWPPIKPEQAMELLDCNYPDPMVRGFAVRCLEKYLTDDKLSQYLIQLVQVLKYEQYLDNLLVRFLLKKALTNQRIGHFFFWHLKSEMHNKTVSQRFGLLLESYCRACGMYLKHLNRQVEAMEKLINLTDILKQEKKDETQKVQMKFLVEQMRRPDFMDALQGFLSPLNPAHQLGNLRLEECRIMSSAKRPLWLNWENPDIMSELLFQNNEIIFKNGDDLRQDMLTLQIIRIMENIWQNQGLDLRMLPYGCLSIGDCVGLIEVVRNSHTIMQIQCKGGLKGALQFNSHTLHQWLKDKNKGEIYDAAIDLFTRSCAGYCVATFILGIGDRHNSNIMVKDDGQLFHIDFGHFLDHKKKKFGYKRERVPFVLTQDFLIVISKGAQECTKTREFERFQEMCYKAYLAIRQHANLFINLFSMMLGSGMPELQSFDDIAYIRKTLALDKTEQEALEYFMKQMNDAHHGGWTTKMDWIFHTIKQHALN

A word on the pIC50: it is the IC50 on a negative log10 scale, so that one unit is a factor of ten. What is called bioavailability is dose-corrected exposure relative to a reference, in per cent. On to `O=C1CN(CCC2CCOCC2)c2nc(-c3ccc(-c4nc[nH]n4)cc3)cnc2N1`, for which the pIC50 in the series with PC-3 [1] is 6.83. The bioavailability in series [2] is 0%.

Turning to `CC(C)(O)c1ccc(-c2cnc3[nH]c(=O)n(CC4CCOCC4)c3n2)cn1`, the pIC50 in the series with PC-3 [1] is 5.38; on mTORC1 it was 5.62; in [3], less than 4.52; in series [4], 5.59.

As to `O=c1[nH]c2ncc(-c3ccc(-c4nc[nH]n4)cc3)nc2n1CCC1CCOCC1`, the figures for the pIC50 (in the series on PC-3 [1]; on mTORC1; in series [4]) were 6.65, 7.40 and 7.74, respectively. The molecule also came in with a bioavailability in series [2] of 0.85%. Besides, in series [5], the activity at 10 µM is 93%.

What is called Tmax is the time from dosing to the highest level. Usually Cmax stands for the highest concentration seen after dosing. In general, MRT refers to the average time that molecules of a dose stay in the body. The term AUC(0-inf) denotes total exposure, with the tail of the curve extrapolated. As a reminder, the clearance is a measure of how efficiently the substance is removed, as volume per time. Higher therefore signals efficient removal. On to `CC(C)(O)c1ccc(-c2cnc3c(n2)N(CC2CCOCC2)CC(=O)N3)cn1`, for which the concentration at 4 h in series [6] came to 5320 nM; in [17], 2870 nM. In addition, the Tmax in [7] is 1.2 h. The concentration at 2 h in series [8] stood at 6830 nM; in series [19] it was 4100 nM. In addition, in series [9], the Cmax came out at 3300 nM. This molecule registered an MRT in series [10] of 2.7 h. Moreover, the values for the AUC(0-inf) in series [11] and in series [31] were 10.8 µM·h and 28 µM·h, respectively. Moreover, the “Cp(f)” value was determined as 1860 nM in the series on Plasma [12], 70 nM with Plasma [14], 850 nM in the series on Plasma [22] and 2390 nM with Plasma [27]. Further, the TGI entry with PC-3 [13], in the series on PC-3 [16] and in the series on PC-3 [25] was “Active” throughout. Moreover, the bioavailability in series [2] is 100%. Moreover, in [15], the Vd stood at 1.3 L/kg. Further, the fraction unbound at 24 h in series [18] was 0.35. Further, the concentration at 8 h stood at 1760 nM in series [20] and 2420 nM in series [24]. Also, the inhibition in vivo at 10 mg/kg in the series on PC-3 [21] is 18%. In [3], the pIC50 was less than 4.52. Besides, the concentration at 24 h in series [23] and in series [26] was 190 nM throughout. In addition, the inhibition in vivo at 30 mg/kg with Mus musculus [28] was determined as 53%; in the series with Mus musculus [29] it was 28%; in the series on Mus musculus [32], 43%; in the series with Mus musculus [35] it was 87%. In the series on PC-3 [30], the inhibition in vivo at 50 mg/kg turned out to be 84%. In series [33], this molecule returned a clearance of 8.1 mL/min/kg. For the same molecule, the TGI entry in the series on PC-3 [34] is “Dose-dependent effect”. Moreover, the inhibition in vivo at 25 mg/kg in the series on PC-3 [36] amounted to 63%. In addition, in the series with Mus musculus [37], the Activity entry is on record as “Non-toxic”.
